Source: patent US12594228B2, “Composition for hair protection or hair strengthening” (AMOREPACIFIC CORPORATION, priority 2024, dated 2026)

Experiments:
[1] = Penetration and binding in hair by confocal microscopy; conditions: fluorescent substance applied to hair, FIG. 6, FIG. 7
Excerpt: A green fluorescent substance (FITC; Fluorescein isothiocyanate) was conjugated to palmitoyl-CWK, a tripeptide (i.e., palmitoyl tripeptide) covalently bound to palmitic acid at the N-terminus (fluorescent labeling) and applied to hair. After that, the change in hair structure that affects the increase in hair tensile strength was confirmed by comparing the colored areas using a confocal microscopy.
Meanwhile, for comparison of hair penetration routes, the water-soluble fluorescent substance 5-(4-Dimethylaminobenzylidene) rhodanine was applied to the hair, and the colored area (indicated in gray in FIG. 7) was confirmed using a confocal microscope.

[2] = Tensile strength of bleached hair tresses treated with test substance (MTT175); set-up: species or system human; conditions: test substance 0.01 wt % in purified water and ethanol (80 wt %), about 30 minutes; FIG. 4, FIG. 5
Experimental: The compositions in Table 2 above were applied to human hair to compare tensile strength.
(§1) Specifically, bleached hair tresses (1 g, manufactured by Beaulax) were prepared. The hair tresses were washed using a basic shampoo without conditioning function, rinsed for 1 minute, and dried for 2 minutes. The dried hair tresses (1 g) were immersed in 100 g of a solution in which the test substance (the mixture of Example 1 or the mixture of Comparative Example 1 in Table 2 above) was dissolved at 0.1 wt % (wherein the solution is a solution in which the test substance (0.1 wt %) is dissolved in purified water (remaining amount) for about 30 minutes. The immersed hair tresses were rinsed in running water for 1 minute and then naturally dried for more than 12 hours. Thirty hair strands were randomly selected from each hair tresses treated with the test substance. Thirty hair strands were randomly selected from the control hair tresses that were not treated with the test substance. The tensile strength of each selected hair was measured using an MTT175 (manufactured by DiaStron) device.
The tensile strength was compared by applying the test substance (the above 5 types of tripeptides) to the hair using the same method as in ‘Experimental Example 2. (1) Measurement of tensile strength’.
as §1, with “(synthesized tripeptide)” for “(the mixture of Example 1 or the mixture of Comparative Example 1 in Table 2 above)”, “0.01” for “0.1”, “(0.01” for “(0.1”, “(residue) and ethanol (80 wt %))” for “(remaining amount)”
Specifically, the tripeptide was synthesized using the same method as the peptide synthesis method of ‘Experimental Example 3’ above, but palmitic acid was added to the N-terminus of the peptide (reagents: HBTU (Hexafluorophosphate Benzotriazole), NMM (N-Methylmorpholine), DMF (Dimethylformamide), 1 hour at room temperature, concentration 0.3 M), and a tripeptide with palmitic acid covalently bonded to the N-terminus (i.e., palmitoyl tripeptide) was synthesized. After that, the test substance (tripeptide with palmitic acid covalently bonded to the N-terminus) was applied to the hair and the tensile strength was compared using the same method as in ‘Experimental Example 3. (1) Measurement of tensile strength’.

hair structural proteins = assay: Denaturation enthalpy of hair structural proteins by DSC; conditions: bleached hair, test substance 0.01 wt % in purified water and ethanol (80 wt %), 30 minutes; FIG. 3
Experimental: The denaturation enthalpy of hair structural proteins was compared according to whether or not the test substance was treated using a DSC (Differential Scanning calorimetry) analyzer. DSC is used as an analysis method to confirm the stability of hair structural proteins. Damage to the hair reduces the stability of hair structural proteins and decreases the enthalpy of denaturation. Specifically, bleached hair tresses (1 g. manufactured by Beaulax) were prepared. The hair tresses were washed using a basic shampoo without a conditioning function, rinsed for 1 minute, and dried for 2 minutes. The dried hair tresses (1 g) were immersed in 100 g of a solution in which the test substance (mixture of Example 1 in Table 2 above) was dissolved at 0.01 wt % (at this time, the solution is a solution in which the mixture of Example 1 (0.01 wt %) is dissolved in purified water (residue) and ethanol (80 wt %)) for 30 minutes. The immersed hair tresses were rinsed in running water for 1 minute and then naturally dried for more than 12 hours. Each treated hair tress was cut into 1 mm lengths, placed in an aluminum high-pressure capsule with 3-5 mg of the cut hair tress and 6-15 mg of distilled water, and combined. […] The denaturation enthalpies of the prepared DSC samples were measured using a DSC (Discovery DSC 250, TA Instruments) device (50-190 degrees, 10 degrees/min).
The denaturation enthalpy was measured by the same method as in ‘Experimental Example 2. (2) Measurement of denaturation enthalpy’, but the denaturation enthalpy was compared by applying applied CWK tripeptide as a test substance to hair.
The denaturation enthalpy was measured by the same method as in ‘Experimental Example 2. (2) Measurement of denaturation enthalpy’, but the denaturation enthalpy was compared by applying a tripeptide with palmitic acid covalently bonded to the N-terminus (i.e. palmitoyl tripeptide) to hair as the test substance.

[3] = Tensile strength of heat-treated hair simulating eyebrows (Fibra.one); set-up: species or system human; conditions: hair heat-treated at 160° C. 20 times, then 0.01 wt % test substance in purified water, about 30 minutes; FIG. 9
Experimental: (§2) Specifically, since it is difficult to obtain eyebrows to be used for evaluation directly from a living body, human hair corresponding to the thickness of eyebrows was selected through Fibra.one (manufactured by DiaStron). The length was prepared to a level that can be applied to a machine measuring tensile strength. Heat-treated hair was prepared by applying pressure by hand at 160° C. 20 times with a hair straightener to the prepared human hair tresses. Hair that had not been heat-treated was prepared as a control group (untreated hair in FIGS. 9 and 11). In Experimental Example 6, the untreated hair was not treated with the test substance.
(§3) After that, the heat-treated hair tresses were treated with the test substance, KCV (KCV-treated hair in FIGS. 9 and 11). Specifically, the prepared tresses (1 g, manufactured by Beaulax) were washed using a basic cleanser without conditioning function, rinsed for 1 minute, and dried for 2 minutes. […]
Specifically, 30 hair strands were randomly selected from each tress (KCV-treated hair) treated with the test substance. […] The tensile strength of each selected hair was measured using a Fibra.one (manufactured by DiaStron).

[4] = Elasticity (horizontal resistance) of heat-treated hair simulating eyebrows; set-up: species or system human; conditions: hair heat-treated at 160° C. 20 times, then 0.01 wt % test substance in purified water, about 30 minutes; FIG. 11
Experimental: as §2, §3
The elasticity of KCV-treated hair, heat-damaged hair, and untreated hair was compared. Elasticity was defined as the horizontal resistance of hair, and elasticity was measured through each step of [Method for Measuring Hair Elasticity] below (see FIG. 10). […]

Row | Molecule | tensile strength of hair compared to control bleached hair tresses [2] | denaturation enthalpy of hair structural protein compared to control hair (hair structural proteins) | also measured
1 | CN(C)c1ccc(C=C2SC(=S)NC2=O)cc1 [5-(4-Dimethylaminobenzylidene) rhodanine] |  |  | penetration and binding in hair (colored areas) [1]: barely remained in the cuticle layer on the hair surface and did not fill the lost area of CMC inside the hair
2 | CKF | significantly increased |  | 
3 | CWK | significantly increased | significantly increased | 
4 | KCL | significantly increased |  | 
5 | KCV | significantly increased |  | tensile strength (break load) per area compared to heat-damaged hair tresses [3]: significantly increased; elasticity compared to heat-damaged hair tresses [4]: significantly increased
6 | PCP [reference compound] | not significant |  | 
7 | palmitoyl-CKF [pal-CKF] | significantly increased | significantly increased | 
8 | palmitoyl-CWK [pal-CWK] | significantly increased | significantly increased | 
9 | palmitoyl-KCV [pal-KCV] | significantly increased | significantly increased | 
